# Activity calls are given as the source filed them.
# Key:
# Coagulation factor XII = target: T1, Coagulation factor XII (Homo sapiens, UniProt P00748); type: functional;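 also: activated factor XIIa alpha cleaving a fluorogenic AMC peptide substrate; inhibitor potency from loss of enzyme activity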
# T1 sequence (P00748 whole entry): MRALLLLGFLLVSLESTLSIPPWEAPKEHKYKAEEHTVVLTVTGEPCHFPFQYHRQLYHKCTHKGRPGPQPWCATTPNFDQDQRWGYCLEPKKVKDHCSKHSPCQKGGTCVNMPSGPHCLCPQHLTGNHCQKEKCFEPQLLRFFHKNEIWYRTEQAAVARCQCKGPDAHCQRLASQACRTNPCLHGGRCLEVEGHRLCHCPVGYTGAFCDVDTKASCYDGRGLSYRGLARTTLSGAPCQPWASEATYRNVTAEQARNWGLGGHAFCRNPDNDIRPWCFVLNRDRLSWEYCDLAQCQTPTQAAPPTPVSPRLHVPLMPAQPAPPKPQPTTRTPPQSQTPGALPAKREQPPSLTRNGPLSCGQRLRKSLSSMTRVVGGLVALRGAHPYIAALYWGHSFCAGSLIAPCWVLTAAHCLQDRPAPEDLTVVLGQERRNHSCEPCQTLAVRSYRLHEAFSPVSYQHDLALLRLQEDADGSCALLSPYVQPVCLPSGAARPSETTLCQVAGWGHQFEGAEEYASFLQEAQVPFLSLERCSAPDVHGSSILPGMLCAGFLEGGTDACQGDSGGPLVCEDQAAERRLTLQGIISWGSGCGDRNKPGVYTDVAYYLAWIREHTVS
# HeLa = test: HeLa cell cytotoxicity, dose response, cytotoxicity control, ATP luminescence, cherry-pick samples (AID 687004); type: functional, cell-based; conditions: Homo sapiens
# Galanin receptor type 3 = Galanin receptor type 3 (Homo sapiens, UniProt O60755); test: Fluorescence-based cell-based primary high throughput dose response assay to identify antagonists of the Galanin Receptor 3 (GalR3).; type: functional
# Sequence of Galanin receptor type 3 (O60755 whole entry): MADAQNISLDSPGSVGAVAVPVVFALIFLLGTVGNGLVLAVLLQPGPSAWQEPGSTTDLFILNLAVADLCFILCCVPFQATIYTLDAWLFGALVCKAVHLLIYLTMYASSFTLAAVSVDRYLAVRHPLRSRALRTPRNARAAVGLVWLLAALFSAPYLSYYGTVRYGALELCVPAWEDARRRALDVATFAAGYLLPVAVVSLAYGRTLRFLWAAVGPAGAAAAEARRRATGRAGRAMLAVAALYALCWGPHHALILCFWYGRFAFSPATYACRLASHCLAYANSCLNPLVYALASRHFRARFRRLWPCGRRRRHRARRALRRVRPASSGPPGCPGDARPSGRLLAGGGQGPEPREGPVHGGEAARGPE
# cells [1] = type: functional, cell-based; conditions: HEK-CNG
# [2] = target: T2, COUP transcription factor 2 (Homo sapiens, UniProt P24468); test: Luminescence-based cell-based high throughput dose response assay to identify inhibitors of COUP-TFII (NR2F2).; type: functional;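 also: HEK293 cells transiently cotransfected with COUP-TFII expression vector and reporter; luciferase reporter luminescence driven by COUP-TFII from the pX2-168 reporter plasmid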
# T2 sequence (P24468 whole entry): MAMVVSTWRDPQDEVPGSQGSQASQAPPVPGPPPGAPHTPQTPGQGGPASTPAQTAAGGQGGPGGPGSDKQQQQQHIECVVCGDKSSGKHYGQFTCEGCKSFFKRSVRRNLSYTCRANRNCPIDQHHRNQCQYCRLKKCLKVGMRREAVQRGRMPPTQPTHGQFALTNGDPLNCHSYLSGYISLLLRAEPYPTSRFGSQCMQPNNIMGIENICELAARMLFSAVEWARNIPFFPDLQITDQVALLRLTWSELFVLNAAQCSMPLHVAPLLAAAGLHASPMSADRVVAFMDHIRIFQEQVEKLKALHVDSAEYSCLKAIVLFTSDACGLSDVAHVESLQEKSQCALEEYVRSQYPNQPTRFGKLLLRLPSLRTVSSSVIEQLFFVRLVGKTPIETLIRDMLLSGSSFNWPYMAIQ
# cells [3] = type: functional, cell-based
# cells [4] = type: functional, cell-based; remark: listed apart in the source
# A-375 [5] = test: MITF: Counter assay: A375 proliferation Measured in Cell-Based System Using Plate Reader - 2084-03_Inhibitor_Dose_DryPowder_Activity. [Related pubchem assays (depositor defined):AID488944]; type: functional; conditions: Homo sapiens
# A-375 [6] = test: A375 melanoma cell viability reduction, dose response, counter-screen for MITF modulator project, cherry-pick samples, set 2 (AID 540335); type: functional, cell-based; conditions: Homo sapiens
# [7] = target: Fructose-bisphosphate aldolase (Mycobacterium tuberculosis, UniProt P9WQA3); test: Fluorescence-based biochemical high throughput dose response assay for inhibitors of the fructose-bisphosphate aldolase (FBA) of M. tuberculosis.; type: functional
# Sequence of Fructose-bisphosphate aldolase (P9WQA3 whole entry): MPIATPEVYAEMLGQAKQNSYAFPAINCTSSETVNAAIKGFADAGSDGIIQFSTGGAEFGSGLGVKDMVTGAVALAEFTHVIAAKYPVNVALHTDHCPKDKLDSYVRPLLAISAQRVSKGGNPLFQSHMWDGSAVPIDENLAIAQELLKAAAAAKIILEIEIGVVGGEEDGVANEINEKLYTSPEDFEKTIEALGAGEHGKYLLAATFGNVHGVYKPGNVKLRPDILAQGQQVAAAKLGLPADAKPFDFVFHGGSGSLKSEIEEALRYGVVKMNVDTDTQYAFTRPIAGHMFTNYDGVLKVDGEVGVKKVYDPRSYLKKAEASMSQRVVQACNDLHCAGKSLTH
# [8] = target: Histone-lysine N-methyltransferase NSD2 (Homo sapiens, UniProt O96028); type: biochemical
# Sequence of Histone-lysine N-methyltransferase NSD2 (O96028 whole entry): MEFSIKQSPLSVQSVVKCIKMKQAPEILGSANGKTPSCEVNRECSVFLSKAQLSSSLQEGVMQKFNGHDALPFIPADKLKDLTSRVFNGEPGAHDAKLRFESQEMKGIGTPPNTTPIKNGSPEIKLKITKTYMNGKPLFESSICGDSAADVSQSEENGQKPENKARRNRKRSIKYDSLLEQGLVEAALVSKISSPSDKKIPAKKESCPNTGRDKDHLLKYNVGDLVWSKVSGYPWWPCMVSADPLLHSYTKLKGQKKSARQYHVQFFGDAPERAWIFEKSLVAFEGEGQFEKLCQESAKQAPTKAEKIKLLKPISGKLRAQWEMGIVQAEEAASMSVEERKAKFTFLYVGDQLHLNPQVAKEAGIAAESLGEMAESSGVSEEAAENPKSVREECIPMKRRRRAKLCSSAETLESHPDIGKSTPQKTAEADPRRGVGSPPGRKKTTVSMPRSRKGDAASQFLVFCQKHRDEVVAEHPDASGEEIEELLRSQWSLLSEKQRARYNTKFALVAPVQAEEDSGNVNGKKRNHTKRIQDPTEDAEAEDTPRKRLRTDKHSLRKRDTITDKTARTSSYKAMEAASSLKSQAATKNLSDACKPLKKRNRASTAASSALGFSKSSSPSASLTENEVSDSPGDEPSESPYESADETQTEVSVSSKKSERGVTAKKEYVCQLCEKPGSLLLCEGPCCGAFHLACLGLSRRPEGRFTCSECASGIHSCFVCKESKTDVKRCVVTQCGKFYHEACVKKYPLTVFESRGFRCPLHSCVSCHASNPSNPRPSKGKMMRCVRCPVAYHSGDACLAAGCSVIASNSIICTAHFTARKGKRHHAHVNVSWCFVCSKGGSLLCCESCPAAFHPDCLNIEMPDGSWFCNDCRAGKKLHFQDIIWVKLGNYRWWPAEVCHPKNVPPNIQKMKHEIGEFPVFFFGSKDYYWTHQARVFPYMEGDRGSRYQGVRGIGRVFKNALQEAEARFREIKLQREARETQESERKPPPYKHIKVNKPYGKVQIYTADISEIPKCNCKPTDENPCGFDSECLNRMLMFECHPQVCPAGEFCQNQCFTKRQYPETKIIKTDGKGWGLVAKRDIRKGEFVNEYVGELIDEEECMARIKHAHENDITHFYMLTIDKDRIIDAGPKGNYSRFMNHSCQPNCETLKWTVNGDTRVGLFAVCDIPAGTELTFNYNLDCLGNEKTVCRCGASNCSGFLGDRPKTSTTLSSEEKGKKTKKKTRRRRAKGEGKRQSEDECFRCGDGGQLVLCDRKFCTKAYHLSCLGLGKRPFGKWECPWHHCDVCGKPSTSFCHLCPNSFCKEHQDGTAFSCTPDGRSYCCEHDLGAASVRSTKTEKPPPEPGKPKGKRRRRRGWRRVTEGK
# [9] = Luminescence Cell-Based Dose Retest to Confirm Inhibitors of Cancer Stem Cells. [Related pubchem assays (depositor defined):AID2717, AID2721]; type: functional; conditions: Homo sapiens
# [10] = target: Beta-2 adrenergic receptor (Homo sapiens, UniProt P07550); test: beta2AR agonists driving receptor internalization, dose response, cell-based, FAP fluorogen, flow cytometry, cherry pick 1 (AID 588763); type: functional
# Sequence of Beta-2 adrenergic receptor (P07550 whole entry): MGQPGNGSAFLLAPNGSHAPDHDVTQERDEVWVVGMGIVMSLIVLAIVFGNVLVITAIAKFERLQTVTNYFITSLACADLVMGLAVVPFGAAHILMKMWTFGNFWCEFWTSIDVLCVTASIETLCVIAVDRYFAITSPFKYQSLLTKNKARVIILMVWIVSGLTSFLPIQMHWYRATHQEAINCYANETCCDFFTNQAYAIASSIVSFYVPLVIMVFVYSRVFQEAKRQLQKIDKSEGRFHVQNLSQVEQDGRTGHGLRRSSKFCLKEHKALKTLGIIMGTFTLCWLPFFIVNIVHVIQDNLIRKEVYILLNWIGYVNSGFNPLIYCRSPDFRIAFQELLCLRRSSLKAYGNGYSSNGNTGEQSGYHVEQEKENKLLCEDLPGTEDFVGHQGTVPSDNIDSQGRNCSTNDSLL
# [11] = HEK293T cell cytotoxicity, dose response, cytotoxicity control for HIV Vif inhibitor project, cherry-picks (AID 652208); type: functional, cell-based
# [12] = A549 cell cytotoxicity, dose response, cytotoxicity control, plate reader, cherry-pick, antagonist series (AID 743412); type: functional, cell-based
# [13] = HepG2 cell cytotoxicity, dose response, cytotoxicity control, plate reader, cherry-pick, antagonist series (AID 743416); type: functional, cell-based
# [14] = LGR2 antagonists, dose response, cell-based, HEK293, CRE-luciferase reporter, cherry pick, set 2 (AID 743343); type: functional;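 also: transfected cells were stimulated with diluted bursicon conditioned medium after compound addition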
# [15] = MC4R antagonists, dose response, counter-screen for LGR2 antagonist project, cell-based, plate reader, cherry pick (AID 743444); type: functional;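 also: transfected HEK 293 cells stimulated with alpha-MSH peptide; potency of inhibitors of the alpha-MSH evoked signal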
# [16] = HEK293 cell cytotoxicity, dose response, cytotoxicity control, plate reader, cherry-picked samples (AID 743446); type: functional, cell-based
smiles,measurement,setting,value
Cc1ccc(CSc2ncnc3c2cnn3-c2ccc(C)cc2)cc1,IC50,Coagulation factor XII,> 50 µM (inactive)
same,AC50,HeLa,48.5 µM (active)
Cc1c(Cl)cccc1NC(=O)N1CCCN(c2nc(-c3ccccc3)ns2)CC1,IC50,Galanin receptor type 3,1.53 µM (active)
same,EC50,cells [1],> 29.9 µM (inactive)
same,IC50,[2],13.4 µM (inactive)
Cc1ccc(Nc2nnc(-c3ccccc3N)o2)cc1C,EC50,cells [3],> 350 µM (not active)
same,EC50,cells [4],7.3 µM (active)
same,AC50,A-375 [5],> 35 µM (active)
same,AC50,A-375 [6],> 35 µM (active)
same,IC50,[7],1.45 µM (active)
COc1cc(/C=C2\C(=N)N3N=C(S(C)(=O)=O)SC3=NC2=O)ccc1OC(=O)c1cccs1,AC50,[8],> 20 µM (inactive)
Cn1nnnc1Sc1ncnc2scc(-c3ccc(Cl)cc3)c12,AC50,[9],3.48 µM (active)
same,EC50,[10],8.38 µM (active)
same,AC50,[11],11.8 µM (active)
same,AC50,[12],7.88 µM (active)
same,AC50,[13],12.1 µM (active)
same,AC50,[14],14.3 µM (active)
same,AC50,[15],23.2 µM (active)
same,AC50,[16],13.9 µM (active)

# Reference: ChEMBL document CHEMBL1201862, “PubChem BioAssay data set” (2004)
